Data reported in PubChem BioAssay (NCI).
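1) Cells in 96-well plates. 2) Compound, 48 h, 5 concentrations. 3) Linear interpolation between surrounding doses. 4) Unreached endpoint = highest concentration. Here, GI50 denotes the concentration required for 50% inhibition of growth. TGI is the concentration that stops growth completely.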

How the values were obtained:
Assay in all cases: NCI tumour cell line growth inhibition, 48 h
OVCAR-8 ovarian = test system: OVCAR-8 ovarian
SK-OV-3 ovarian = test system: SK-OV-3 ovarian
M14 melanoma = test system: M14 melanoma
NCI-H460 lung = test system: NCI-H460 lung
NCI-H23 lung = test system: NCI-H23 lung
786-0 renal = test system: 786-0 renal
CCRF-CEM leukemia = test system: CCRF-CEM leukemia
SW-620 colon = test system: SW-620 colon
A549 NSCLC = test system: A549 NSCLC
NCI-H522 lung = test system: NCI-H522 lung
SK-MEL-5 melanoma = test system: SK-MEL-5 melanoma
IGROV1 ovarian = test system: IGROV1 ovarian
HL-60(TB) leukemia = test system: HL-60(TB) leukemia
SK-MEL-2 melanoma = test system: SK-MEL-2 melanoma
UACC-62 melanoma = test system: UACC-62 melanoma
OVCAR-4 ovarian = test system: OVCAR-4 ovarian
DLD-1 colon = test system: DLD-1 colon
SNB-19 CNS = test system: SNB-19 CNS
OVCAR-5 ovarian = test system: OVCAR-5 ovarian
SNB-78 CNS = test system: SNB-78 CNS
HCT-15 colon = test system: HCT-15 colon
EKVX NSCLC = test system: EKVX NSCLC
CAKI-1 renal = test system: CAKI-1 renal
SN12C renal = test system: SN12C renal
SF-268 CNS = test system: SF-268 CNS
ACHN renal = test system: ACHN renal
UO-31 renal = test system: UO-31 renal
SF-539 CNS = test system: SF-539 CNS
SK-MEL-28 melanoma = test system: SK-MEL-28 melanoma
HOP-92 NSCLC = test system: HOP-92 NSCLC
NCI-H226 lung = test system: NCI-H226 lung
MALME-3M melanoma = test system: MALME-3M melanoma
KM20L2 colon = test system: KM20L2 colon
HOP-62 NSCLC = test system: HOP-62 NSCLC
U251 CNS = test system: U251 CNS
HT29 colon = test system: HT29 colon
M19-MEL melanoma = test system: M19-MEL melanoma
HCT-116 colon = test system: HCT-116 colon
SNB-75 CNS = test system: SNB-75 CNS
DMS 114 small cell lung = test system: DMS 114 small cell lung
DMS 273 small cell lung = test system: DMS 273 small cell lung
TK-10 renal = test system: TK-10 renal
LOX IMVI melanoma = test system: LOX IMVI melanoma
SF-295 CNS = test system: SF-295 CNS
HOP-18 NSCLC = test system: HOP-18 NSCLC
COLO 205 colon = test system: COLO 205 colon
RXF 393 renal = test system: RXF 393 renal
UACC-257 melanoma = test system: UACC-257 melanoma
MOLT-4 leukemia = test system: MOLT-4 leukemia
HCC-2998 colon = test system: HCC-2998 colon
A498 renal = test system: A498 renal
LXFL 529 NSCLC = test system: LXFL 529 NSCLC
KM12 colon = test system: KM12 colon
K-562 leukemia = test system: K-562 leukemia
OVCAR-3 ovarian = test system: OVCAR-3 ovarian
RPMI-8226 leukemia = test system: RPMI-8226 leukemia
SR leukemia = test system: SR leukemia
RXF-631 renal = test system: RXF-631 renal
XF 498 CNS = test system: XF 498 CNS

## CC(=O)O[C@H]1CCC2[C@@H]3CCC4c5nonc5CC[C@]4(C)C3CC[C@@]21C (stereo partly specified)
OVCAR-8 ovarian
  TGI: > 10 µM
SK-OV-3 ovarian
  TGI: > 10 µM
M14 melanoma
  TGI: > 10 µM
NCI-H460 lung
  TGI: > 10 µM
NCI-H23 lung
  TGI: > 10 µM
786-0 renal
  TGI: > 10 µM
CCRF-CEM leukemia
  GI50: > 100 µM
  TGI: > 100 µM
SW-620 colon
  GI50: > 100 µM
  TGI: > 100 µM
A549 NSCLC
  TGI: > 10 µM
NCI-H522 lung
  TGI: > 10 µM
SK-MEL-5 melanoma
  TGI: > 10 µM
IGROV1 ovarian
  GI50: > 100 µM
  TGI: > 100 µM
HL-60(TB) leukemia
  GI50: > 100 µM
  TGI: > 100 µM
SK-MEL-2 melanoma
  GI50: > 100 µM
  TGI: > 100 µM
UACC-62 melanoma
  GI50: > 100 µM
  TGI: > 100 µM
OVCAR-4 ovarian
  TGI: > 10 µM
DLD-1 colon
  TGI: > 10 µM
SNB-19 CNS
  TGI: > 10 µM
OVCAR-5 ovarian
  GI50: > 100 µM
  TGI: > 100 µM
SNB-78 CNS
  GI50: > 100 µM
  TGI: > 100 µM
HCT-15 colon
  TGI: > 10 µM
EKVX NSCLC
  GI50: > 100 µM
  TGI: > 100 µM
CAKI-1 renal
  TGI: > 10 µM
SN12C renal
  TGI: > 10 µM
SF-268 CNS
  TGI: > 10 µM
ACHN renal
  GI50: > 10 µM
  TGI: > 100 µM
UO-31 renal
  TGI: > 10 µM
SF-539 CNS
  TGI: > 10 µM
SK-MEL-28 melanoma
  TGI: > 10 µM
HOP-92 NSCLC
  GI50: > 100 µM
  TGI: > 100 µM
NCI-H226 lung
  TGI: > 10 µM
MALME-3M melanoma
  GI50: > 100 µM
  TGI: > 100 µM
KM20L2 colon
  TGI: > 10 µM
HOP-62 NSCLC
  TGI: > 10 µM
U251 CNS
  TGI: > 10 µM
HT29 colon
  GI50: > 100 µM
  TGI: > 100 µM
M19-MEL melanoma
  GI50: > 100 µM
  TGI: > 100 µM
HCT-116 colon
  GI50: > 100 µM
  TGI: > 100 µM
SNB-75 CNS
  GI50: > 10 µM
  TGI: > 100 µM
DMS 114 small cell lung
  GI50: > 100 µM
  TGI: > 100 µM
DMS 273 small cell lung
  TGI: > 10 µM
TK-10 renal
  TGI: > 10 µM
LOX IMVI melanoma
  TGI: > 10 µM
SF-295 CNS
  TGI: > 10 µM
HOP-18 NSCLC
  TGI: > 10 µM
COLO 205 colon
  TGI: > 10 µM
RXF 393 renal
  TGI: > 10 µM
UACC-257 melanoma
  TGI: > 10 µM
MOLT-4 leukemia
  TGI: > 10 µM
HCC-2998 colon
  GI50: > 100 µM
  TGI: > 100 µM
A498 renal
  TGI: > 10 µM
LXFL 529 NSCLC
  TGI: > 10 µM
KM12 colon
  GI50: > 100 µM
  TGI: > 100 µM
K-562 leukemia
  GI50: > 100 µM
  TGI: > 100 µM

## COC(=O)C(CC1=C(O)Nc2ccccc2N1)/C(=N/NC(N)=O)C(=O)Nc1ccccc1C (stereo unspecified)
OVCAR-8 ovarian
  TGI: > 100 µM
SK-OV-3 ovarian
  TGI: > 100 µM
M14 melanoma
  TGI: > 100 µM
NCI-H460 lung
  TGI: > 100 µM
NCI-H23 lung
  TGI: > 100 µM
786-0 renal
  TGI: > 100 µM
CCRF-CEM leukemia
  TGI: 48.8 µM
A549 NSCLC
  TGI: > 100 µM
OVCAR-3 ovarian
  TGI: > 100 µM
NCI-H522 lung
  TGI: 33.9 µM
SK-MEL-5 melanoma
  TGI: > 100 µM
IGROV1 ovarian
  TGI: > 100 µM
HL-60(TB) leukemia
  TGI: > 100 µM
SK-MEL-2 melanoma
  TGI: > 100 µM
UACC-62 melanoma
  TGI: > 100 µM
OVCAR-4 ovarian
  TGI: > 100 µM
DLD-1 colon
  TGI: > 100 µM
SNB-19 CNS
  TGI: > 100 µM
OVCAR-5 ovarian
  TGI: > 100 µM
SNB-78 CNS
  TGI: > 100 µM
HCT-15 colon
  TGI: 34.1 µM
EKVX NSCLC
  TGI: > 100 µM
CAKI-1 renal
  TGI: > 100 µM
SN12C renal
  TGI: > 100 µM
SF-268 CNS
  TGI: 45.2 µM
ACHN renal
  TGI: > 100 µM
UO-31 renal
  TGI: > 100 µM
SF-539 CNS
  TGI: > 100 µM
SK-MEL-28 melanoma
  TGI: > 100 µM
HOP-92 NSCLC
  TGI: > 100 µM
NCI-H226 lung
  TGI: > 100 µM
MALME-3M melanoma
  TGI: > 100 µM
KM20L2 colon
  TGI: > 100 µM
HOP-62 NSCLC
  TGI: > 100 µM
U251 CNS
  TGI: > 100 µM
HT29 colon
  TGI: > 100 µM
M19-MEL melanoma
  TGI: > 100 µM
HCT-116 colon
  TGI: 36.8 µM
SNB-75 CNS
  TGI: > 100 µM
DMS 114 small cell lung
  TGI: 26.5 µM
DMS 273 small cell lung
  TGI: 36.9 µM
TK-10 renal
  TGI: > 100 µM
LOX IMVI melanoma
  TGI: 35 µM
SF-295 CNS
  TGI: > 100 µM
HOP-18 NSCLC
  TGI: > 100 µM
COLO 205 colon
  TGI: > 100 µM
RXF 393 renal
  TGI: > 100 µM
UACC-257 melanoma
  TGI: > 100 µM
MOLT-4 leukemia
  TGI: > 100 µM
HCC-2998 colon
  TGI: > 100 µM
RPMI-8226 leukemia
  TGI: 48.4 µM
A498 renal
  TGI: > 100 µM
LXFL 529 NSCLC
  TGI: > 100 µM
KM12 colon
  TGI: > 100 µM
K-562 leukemia
  TGI: > 100 µM
SR leukemia
  TGI: 48.5 µM

## O=C(O)C(CS)NCc1c2ccccc2nc2ccccc12 (stereo unspecified)
OVCAR-8 ovarian
  TGI: > 100 µM
SK-OV-3 ovarian
  TGI: > 100 µM
NCI-H460 lung
  TGI: > 100 µM
NCI-H23 lung
  TGI: > 100 µM
786-0 renal
  TGI: > 100 µM
CCRF-CEM leukemia
  TGI: 74.6 µM
SW-620 colon
  TGI: > 100 µM
A549 NSCLC
  TGI: > 100 µM
OVCAR-3 ovarian
  TGI: > 100 µM
NCI-H522 lung
  TGI: 88 µM
RXF-631 renal
  TGI: > 100 µM
IGROV1 ovarian
  TGI: > 100 µM
HL-60(TB) leukemia
  TGI: 62 µM
SK-MEL-2 melanoma
  TGI: > 100 µM
OVCAR-4 ovarian
  TGI: 37.6 µM
DLD-1 colon
  TGI: > 100 µM
SNB-19 CNS
  TGI: > 100 µM
OVCAR-5 ovarian
  TGI: > 100 µM
HCT-15 colon
  TGI: > 100 µM
EKVX NSCLC
  TGI: > 100 µM
CAKI-1 renal
  TGI: > 100 µM
SN12C renal
  TGI: > 100 µM
SF-268 CNS
  TGI: > 100 µM
ACHN renal
  TGI: > 100 µM
UO-31 renal
  TGI: 64.2 µM
SF-539 CNS
  TGI: > 100 µM
SK-MEL-28 melanoma
  TGI: > 100 µM
HOP-92 NSCLC
  TGI: 88.9 µM
NCI-H226 lung
  TGI: > 100 µM
MALME-3M melanoma
  TGI: > 100 µM
KM20L2 colon
  TGI: > 100 µM
U251 CNS
  TGI: > 100 µM
HT29 colon
  TGI: > 100 µM
M19-MEL melanoma
  TGI: 89.4 µM
HCT-116 colon
  TGI: > 100 µM
SNB-75 CNS
  TGI: > 100 µM
DMS 273 small cell lung
  TGI: 91.3 µM
TK-10 renal
  TGI: > 100 µM
LOX IMVI melanoma
  TGI: > 100 µM
SF-295 CNS
  TGI: > 100 µM
COLO 205 colon
  TGI: > 100 µM
RXF 393 renal
  TGI: 98.4 µM
UACC-257 melanoma
  TGI: > 100 µM
XF 498 CNS
  TGI: 53.7 µM
MOLT-4 leukemia
  TGI: > 100 µM
HCC-2998 colon
  TGI: > 100 µM
RPMI-8226 leukemia
  TGI: 70.3 µM
LXFL 529 NSCLC
  TGI: > 100 µM
KM12 colon
  TGI: > 100 µM
K-562 leukemia
  TGI: > 100 µM
SR leukemia
  TGI: 97.3 µM
